Measured values as given in US20080228408A1, “Method for Determining the State of an Ensemble of Cells and System for the Implementation of the Method” (priority 2005, published 2008).

Test system: neuronal cells
Test: Toxicogenomic DNA chip test: gene expression level (RES) in cells exposed to the compound compared to unexposed cells
Assay type: cell-based
Details: Neuron
From the text: One wishes to carry out the evaluation of the toxicity of a collection of (15) pesticides using a toxicogenomic analysis of the impact of these pesticides on neuronal cells, according to 4 modes of exposure of the cells to the compounds:
DNA chips built specifically to test the expression level of the 51 genes in cells under study, each chip being configured only for one gene in our case, each chip allowing to carry out for each gene a redundant number of measurements (16) in order to stabilize the levels of expression by analysing the results on average. The spots on the chips are numbered sp1 to sp16.
An automated device D5 allowing, on signal of execution of the C2 test, to take a E1 sample of the cell culture C (non exposed) and a E2 sample of the cell culture C exposed to the compound by the device described previously under the conditions specified with the configuration, then to use the D1 device to select a DNA chip corresponding to the gene specified at the time of the configuration, and to put the samples E1 and E2 thus obtained in the presence of the aforementioned DNA chip according to the methods described in the D1 device,
The result of a test, RES, transmitted by the Resource Unit to the PC, is a raw numerical value which indicates the expression level of the gene indicated in the configuration, for the cell exposed to the compound under the conditions of concentration and exposure duration specified in the configuration, compared to the expression level of the same gene in an unexposed cell of identical nature.
The following results are based on 3 evaluations, each using a different strategy, the target cells being neuronal cells, the mode of exposure being Expo11.
The results presented in table 2 show the values obtained in (052) for the evaluation of Paraquat according to the 4 modes Expo11, Expo12, Expo21, Expo22 carried out. The missing data are not relevant (ranging between 0.5 and 2 strictly).

`C[n+]1ccc(-c2cc[n+](C)cc2)cc1` [Paraquat] was tested, and the “A2M gene expression level RES (exposed/unexposed cells)” value (C1 (IC50), 24 h (Expo11)) was 0.43, the “AITCH gene expression level RES (exposed/unexposed cells)” value (C1 (IC50), 24 h (Expo11)) was 0.13 and the “ALB gene expression level RES (exposed/unexposed cells)” value (C1 (IC50), 24 h (Expo11)) was 0.57. The “APAF1 gene expression level RES (exposed/unexposed cells)” value (C1 (IC50), 24 h (Expo11)) was 0.47, the “AR gene expression level RES (exposed/unexposed cells)” value (C1 (IC50), 24 h (Expo11)) was 0.39 and the “ATF6 gene expression level RES (exposed/unexposed cells)” value (C1 (IC50), 24 h (Expo11)) was 0.48. For the same compound, the “ATM gene expression level RES (exposed/unexposed cells)” value (C1 (IC50), 24 h (Expo11)) was 0.42, the “BAX gene expression level RES (exposed/unexposed cells)” value (C1 (IC50), 24 h (Expo11)) was 0.40 and the “BCL2 gene expression level RES (exposed/unexposed cells)” value (C1 (IC50), 24 h (Expo11)) was 0.44. For the same compound, the “BZRP gene expression level RES (exposed/unexposed cells)” value (C1 (IC50), 24 h (Expo11)) was 0.53, the “C12ORF8 gene expression level RES (exposed/unexposed cells)” value (C1 (IC50), 24 h (Expo11)) was 0.57 and the “CALR gene expression level RES (exposed/unexposed cells)” value (C1 (IC50), 24 h (Expo11)) was 0.52. For the same compound, the “CDC25C gene expression level RES (exposed/unexposed cells)” value (C1 (IC50), 24 h (Expo11)) was 0.62, the “CDK4 gene expression level RES (exposed/unexposed cells)” value (C1 (IC50), 24 h (Expo11)) was 0.59 and the “CDKN1A gene expression level RES (exposed/unexposed cells)” value (C1 (IC50), 24 h (Expo11)) was 0.46. For the same compound, the “CREB1 gene expression level RES (exposed/unexposed cells)” value (C1 (IC50), 24 h (Expo11)) was 0.64, the “CTSB gene expression level RES (exposed/unexposed cells)” value (C1 (IC50), 24 h (Expo11)) was 0.51 and the “CTSD gene expression level RES (exposed/unexposed cells)” value (C1 (IC50), 24 h (Expo11)) was 0.39. The “EGF gene expression level RES (exposed/unexposed cells)” value (C1 (IC50), 24 h (Expo11)) was 0.47, the “EPHX1 gene expression level RES (exposed/unexposed cells)” value (C1 (IC50), 24 h (Expo11)) was 0.45 and the “FOS gene expression level RES (exposed/unexposed cells)” value (C1 (IC50), 24 h (Expo11)) was 0.43. For the same compound, the “GADD45A gene expression level RES (exposed/unexposed cells)” value (C1 (IC50), 24 h (Expo11)) was 0.54, the “GPX1 gene expression level RES (exposed/unexposed cells)” value (C1 (IC50), 24 h (Expo11)) was 0.49 and the “GSS gene expression level RES (exposed/unexposed cells)” value (C1 (IC50), 24 h (Expo11)) was 0.54. For the same compound, the “GSTM3 gene expression level RES (exposed/unexposed cells)” value (C1 (IC50), 24 h (Expo11)) was 0.71, the “HOXD1 gene expression level RES (exposed/unexposed cells)” value (C1 (IC50), 24 h (Expo11)) was 0.44 and the “HSPA5 gene expression level RES (exposed/unexposed cells)” value (C1 (IC50), 24 h (Expo11)) was 0.55. The “HSPA9B gene expression level RES (exposed/unexposed cells)” value (C1 (IC50), 24 h (Expo11)) was 0.58, the “JUN gene expression level RES (exposed/unexposed cells)” value (C1 (IC50), 24 h (Expo11)) was 0.61 and the “MDM2 gene expression level RES (exposed/unexposed cells)” value (C1 (IC50), 24 h (Expo11)) was 0.37. For the same compound, the “NFKB1 gene expression level RES (exposed/unexposed cells)” value (C1 (IC50), 24 h (Expo11)) was 0.54, the “NOS2A gene expression level RES (exposed/unexposed cells)” value (C1 (IC50), 24 h (Expo11)) was 0.54 and the “PARA gene expression level RES (exposed/unexposed cells)” value (C1 (IC50), 24 h (Expo11)) was 0.38. The “PGR gene expression level RES (exposed/unexposed cells)” value (C1 (IC50), 24 h (Expo11)) was 0.42, the “RAD50 gene expression level RES (exposed/unexposed cells)” value (C1 (IC50), 24 h (Expo11)) was 0.63 and the “RAD51 gene expression level RES (exposed/unexposed cells)” value (C1 (IC50), 24 h (Expo11)) was 0.49. The “SOD1 gene expression level RES (exposed/unexposed cells)” value (C1 (IC50), 24 h (Expo11)) was 0.76, the “TF1 gene expression level RES (exposed/unexposed cells)” value (C1 (IC50), 24 h (Expo11)) was 0.68 and the “THBS1 gene expression level RES (exposed/unexposed cells)” value (C1 (IC50), 24 h (Expo11)) was 0.39. For the same compound, the “TP53 gene expression level RES (exposed/unexposed cells)” value (C1 (IC50), 24 h (Expo11)) was 0.54, the “TUBA1 gene expression level RES (exposed/unexposed cells)” value (C1 (IC50), 24 h (Expo11)) was 0.38 and the “XBP1 gene expression level RES (exposed/unexposed cells)” value (C1 (IC50), 24 h (Expo11)) was 0.50. The “A2M gene expression level RES (exposed/unexposed cells)” value (C1 (IC50), 48 h (Expo12)) was 0.03, the “AITCH gene expression level RES (exposed/unexposed cells)” value (C1 (IC50), 48 h (Expo12)) was 0.03 and the “ALB gene expression level RES (exposed/unexposed cells)” value (C1 (IC50), 48 h (Expo12)) was 0.01. The “APAF1 gene expression level RES (exposed/unexposed cells)” value (C1 (IC50), 48 h (Expo12)) was 0.05, the “AR gene expression level RES (exposed/unexposed cells)” value (C1 (IC50), 48 h (Expo12)) was 0.04 and the “ATF6 gene expression level RES (exposed/unexposed cells)” value (C1 (IC50), 48 h (Expo12)) was 0.05. For the same compound, the “ATM gene expression level RES (exposed/unexposed cells)” value (C1 (IC50), 48 h (Expo12)) was 0.04, the “BAX gene expression level RES (exposed/unexposed cells)” value (C1 (IC50), 48 h (Expo12)) was 0.05 and the “BCL2 gene expression level RES (exposed/unexposed cells)” value (C1 (IC50), 48 h (Expo12)) was 0.04. The “BZRP gene expression level RES (exposed/unexposed cells)” value (C1 (IC50), 48 h (Expo12)) was 0.04, the “C12ORF8 gene expression level RES (exposed/unexposed cells)” value (C1 (IC50), 48 h (Expo12)) was 0.05 and the “CALR gene expression level RES (exposed/unexposed cells)” value (C1 (IC50), 48 h (Expo12)) was 0.04. For the same compound, the “CDC25C gene expression level RES (exposed/unexposed cells)” value (C1 (IC50), 48 h (Expo12)) was 0.04, the “CDK4 gene expression level RES (exposed/unexposed cells)” value (C1 (IC50), 48 h (Expo12)) was 0.06 and the “CDKN1A gene expression level RES (exposed/unexposed cells)” value (C1 (IC50), 48 h (Expo12)) was 0.02. For the same compound, the “CREB1 gene expression level RES (exposed/unexposed cells)” value (C1 (IC50), 48 h (Expo12)) was 0.03, the “CTSB gene expression level RES (exposed/unexposed cells)” value (C1 (IC50), 48 h (Expo12)) was 0.05 and the “CTSD gene expression level RES (exposed/unexposed cells)” value (C1 (IC50), 48 h (Expo12)) was 0.03. For the same compound, the “EGF gene expression level RES (exposed/unexposed cells)” value (C1 (IC50), 48 h (Expo12)) was 0.04, the “EPHX1 gene expression level RES (exposed/unexposed cells)” value (C1 (IC50), 48 h (Expo12)) was 0.07 and the “FOS gene expression level RES (exposed/unexposed cells)” value (C1 (IC50), 48 h (Expo12)) was 0.04. The “GADD45A gene expression level RES (exposed/unexposed cells)” value (C1 (IC50), 48 h (Expo12)) was 0.04, the “GPX1 gene expression level RES (exposed/unexposed cells)” value (C1 (IC50), 48 h (Expo12)) was 0.02 and the “GSS gene expression level RES (exposed/unexposed cells)” value (C1 (IC50), 48 h (Expo12)) was 0.04. For the same compound, the “GSTM3 gene expression level RES (exposed/unexposed cells)” value (C1 (IC50), 48 h (Expo12)) was 0.06, the “HOXD1 gene expression level RES (exposed/unexposed cells)” value (C1 (IC50), 48 h (Expo12)) was 0.03 and the “HSPA5 gene expression level RES (exposed/unexposed cells)” value (C1 (IC50), 48 h (Expo12)) was 0.06. The “HSPA9B gene expression level RES (exposed/unexposed cells)” value (C1 (IC50), 48 h (Expo12)) was 0.05, the “JUN gene expression level RES (exposed/unexposed cells)” value (C1 (IC50), 48 h (Expo12)) was 0.05 and the “MDM2 gene expression level RES (exposed/unexposed cells)” value (C1 (IC50), 48 h (Expo12)) was 0.05. The “NFKB1 gene expression level RES (exposed/unexposed cells)” value (C1 (IC50), 48 h (Expo12)) was 0.04, the “NOS2A gene expression level RES (exposed/unexposed cells)” value (C1 (IC50), 48 h (Expo12)) was 0.04 and the “PARA gene expression level RES (exposed/unexposed cells)” value (C1 (IC50), 48 h (Expo12)) was 0.04. The “PGR gene expression level RES (exposed/unexposed cells)” value (C1 (IC50), 48 h (Expo12)) was 0.04, the “RAD50 gene expression level RES (exposed/unexposed cells)” value (C1 (IC50), 48 h (Expo12)) was 0.06 and the “RAD51 gene expression level RES (exposed/unexposed cells)” value (C1 (IC50), 48 h (Expo12)) was 0.05. The “SOD1 gene expression level RES (exposed/unexposed cells)” value (C1 (IC50), 48 h (Expo12)) was 0.05, the “TF1 gene expression level RES (exposed/unexposed cells)” value (C1 (IC50), 48 h (Expo12)) was 0.05 and the “THBS1 gene expression level RES (exposed/unexposed cells)” value (C1 (IC50), 48 h (Expo12)) was 0.05. The “TP53 gene expression level RES (exposed/unexposed cells)” value (C1 (IC50), 48 h (Expo12)) was 0.05, the “TUBA1 gene expression level RES (exposed/unexposed cells)” value (C1 (IC50), 48 h (Expo12)) was 0.04 and the “XBP1 gene expression level RES (exposed/unexposed cells)” value (C1 (IC50), 48 h (Expo12)) was 0.05. The “A2M gene expression level RES (exposed/unexposed cells)” value (C2 (IC50/10), 24 h (Expo21)) was 0.14 and the “AITCH gene expression level RES (exposed/unexposed cells)” value (C2 (IC50/10), 24 h (Expo21)) was 0.08.
